Assay results from patent US6562841B1, “Methods and compositions for repelling arthropods” (The United States of America as represented by the …, priority 2000, dated 2003).
Read-outs that look alike come from different tables or passages of the source.

Experiments:
[1] = test system: Aedes aegypti (Linnaeus); experiment: Repellent bioassay on human skin, K & D modules, biting frequency of Aedes aegypti; assay type: in vivo; settings: for repellent activity, comparison in words: pair-wise comparison alpha=0.05
[2] = test system: many species of blood-sucking arthropods; settings: field and laboratory studies, literature, cited from earlier work
[3] = test system: Aedes albopictus; experiment: Repellent bioassay on human skin, K & D modules, Aedes albopictus; assay type: in vivo
[4] = test system: Anopheles stephensi; experiment: Repellent bioassay on human skin, K & D modules, Anopheles stephensi; assay type: in vivo
[5] = test system: Phlebotomus papatasi; experiment: Repellent bioassay on human skin, K & D modules, Phlebotomus papatasi; assay type: in vivo

CC1CCCCN1C(=O)C1CC=CCC1 (racemic) [compound 220, 1-(3-cyclohexen-1-ylcarbonyl)-2-methylpiperidine, reference compound]
proportion biting value ([1]; Ae. aegypti females on treated human skin, 4.95 μg/cm^2 skin, 2 min exposure): 0.45
repellent activity, comparison in words ([1]; Ae. aegypti, 4.95 μg/cm^2 skin): not significantly different from one another
effectiveness in reducing bites compared with deet [2]: more or as effective as the commonly used arthropod repellent deet
effectiveness in reducing bites compared with deet ([2]; listed as 220 racemate): more effective than deet

C[C@H]1CCCCN1C(=O)[C@@H]1CC=CCC1 (single isomer, unassigned) [(1S,2′S)]
times more repellent than the other stereoisomers ([1]; Ae. aegypti, 4.95 μg/cm^2 skin): 2.8-3.1 times
times more effective in suppressing bites than the racemate ([1]; Ae. aegypti, equal dose): 2.5 times
times more effective in suppressing bites than the racemate [3]: 4 times
repellent effectiveness, comparison in words [4]: most effective in repelling bites
repellent effectiveness, comparison in words [5]: most effective in repelling bites

CC1CCCCN1C(=O)C1CC=CCC1 [(1R,2′R), 1-(3-cyclohexen-1-ylcarbonyl)-2-methylpiperidine]
repellent activity, comparison in words ([1]; Ae. aegypti, 4.95 μg/cm^2 skin, listed as (1R,2′R)-220): significantly less effective as a repellent

CC1CCCCN1C(=O)C1CC=CCC1 [(1R,2′S), 1-(3-cyclohexen-1-ylcarbonyl)-2-methylpiperidine]
times more repellent than the other stereoisomers ([1]; Ae. aegypti, 4.95 μg/cm^2 skin): 1.6-1.8 times
repellent effectiveness, comparison in words [3]: more effective than the (1S,2′R) and (1R,2′R) stereoisomers

CC1CCCCN1C(=O)C1CC=CCC1 [(1S,2′R), 1-(3-cyclohexen-1-ylcarbonyl)-2-methylpiperidine]
repellent activity, comparison in words ([1]; Ae. aegypti, 4.95 μg/cm^2 skin): not significantly different from one another
